ChEMBL document CHEMBL1201862, “PubChem BioAssay data set” (2004)
The source made the active and inactive calls.

What was measured:
Assay type in all cases: functional
[1] = target: T1, Orexin/Hypocretin receptor type 1 (Homo sapiens, UniProt O43613); assay: (§1) Fluorescence-based cell-based high throughput dose response assay for antagonists of the orexin 1 receptor (OX1R; HCRTR1). [Related pubchem assays (depositor defined):AID434989, AID435008, AID463079, AID485270, AID492963, AID492964, AID492965, AID493232, AID504717, AID504718]
T1 sequence (O43613 whole entry): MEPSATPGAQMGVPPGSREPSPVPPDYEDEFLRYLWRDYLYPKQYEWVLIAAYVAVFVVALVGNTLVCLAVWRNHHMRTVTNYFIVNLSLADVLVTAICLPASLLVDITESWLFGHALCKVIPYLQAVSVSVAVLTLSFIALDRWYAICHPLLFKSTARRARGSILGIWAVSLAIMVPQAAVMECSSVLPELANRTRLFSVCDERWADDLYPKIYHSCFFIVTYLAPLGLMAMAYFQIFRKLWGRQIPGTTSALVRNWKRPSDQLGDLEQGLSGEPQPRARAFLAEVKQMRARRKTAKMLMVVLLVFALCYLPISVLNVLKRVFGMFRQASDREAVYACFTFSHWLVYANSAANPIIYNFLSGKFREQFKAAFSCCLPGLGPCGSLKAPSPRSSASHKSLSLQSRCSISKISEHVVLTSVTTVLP

Orexin receptor type 2 [2] = target: T2, Orexin receptor type 2 (Homo sapiens, UniProt O43614); assay: Counterscreen assay for antagonists of the orexin 1 receptor (OX1R; HCRTR1): Fluorescence-based cell-based dose response assay for antagonists of the orexin 2 receptor (OX2R; HCRTR2), run by assay provider.
T2 sequence (O43614 whole entry): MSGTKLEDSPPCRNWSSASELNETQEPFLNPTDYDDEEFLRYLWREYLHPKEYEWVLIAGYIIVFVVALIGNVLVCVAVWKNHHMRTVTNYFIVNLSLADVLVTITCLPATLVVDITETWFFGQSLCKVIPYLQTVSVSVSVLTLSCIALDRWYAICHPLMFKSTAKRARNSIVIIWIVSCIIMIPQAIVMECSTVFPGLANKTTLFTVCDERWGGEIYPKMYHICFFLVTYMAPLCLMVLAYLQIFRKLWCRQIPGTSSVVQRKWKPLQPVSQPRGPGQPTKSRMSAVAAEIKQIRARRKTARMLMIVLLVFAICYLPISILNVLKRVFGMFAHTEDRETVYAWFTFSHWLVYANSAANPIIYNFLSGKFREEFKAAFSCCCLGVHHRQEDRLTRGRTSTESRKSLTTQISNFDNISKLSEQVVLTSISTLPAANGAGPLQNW

[3] = (§2) Counterscreen for antagonists of the orexin 1 receptor (OX1R; HCRTR1): Fluorescence-based cell-based high throughput dose response assay to identify antagonists of the parental CHO cell line. [Related pubchem assays (depositor defined):AID434989, AID435008, AID463079, AID485270, AID492963, AID492964, AID492965, AID493232, AID504699, AID504701]
Orexin receptor type 2 [4] = target: T2, Orexin receptor type 2; assay: Counterscreen assay for antagonists of the orexin 1 receptor (OX1R; HCRTR1): Homogeneous Time Resolved Fluorescence (HTRF)-based cell-based dose response assay for antagonists of the orexin 2 receptor (OX2R; HCRTR2), run by assay provider.
[5] = target: T1, Orexin/Hypocretin receptor type 1; assay: as §1, with “Homogeneous Time Resolved Fluorescence (HTRF)-based” for “Fluorescence-based”
CHO-K1 = assay: as §2, with “Homogeneous time resolved fluorescence (HTRF)-based” for “Fluorescence-based”, “cell-based” for “cell-based high throughput”, “CHO-K1” for “CHO”; conditions: Cricetulus griseus;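 also: potency for inhibition of ATP-stimulated IP1 production as antagonists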
[6] = target: 72 kDa type IV collagenase (Homo sapiens, UniProt P08253); assay: Dose Response validation of uHTS RPN11 inhibitor hits using a MMP-2 Fluorescence assay.
72 kDa type IV collagenase, sequence (P08253 whole entry): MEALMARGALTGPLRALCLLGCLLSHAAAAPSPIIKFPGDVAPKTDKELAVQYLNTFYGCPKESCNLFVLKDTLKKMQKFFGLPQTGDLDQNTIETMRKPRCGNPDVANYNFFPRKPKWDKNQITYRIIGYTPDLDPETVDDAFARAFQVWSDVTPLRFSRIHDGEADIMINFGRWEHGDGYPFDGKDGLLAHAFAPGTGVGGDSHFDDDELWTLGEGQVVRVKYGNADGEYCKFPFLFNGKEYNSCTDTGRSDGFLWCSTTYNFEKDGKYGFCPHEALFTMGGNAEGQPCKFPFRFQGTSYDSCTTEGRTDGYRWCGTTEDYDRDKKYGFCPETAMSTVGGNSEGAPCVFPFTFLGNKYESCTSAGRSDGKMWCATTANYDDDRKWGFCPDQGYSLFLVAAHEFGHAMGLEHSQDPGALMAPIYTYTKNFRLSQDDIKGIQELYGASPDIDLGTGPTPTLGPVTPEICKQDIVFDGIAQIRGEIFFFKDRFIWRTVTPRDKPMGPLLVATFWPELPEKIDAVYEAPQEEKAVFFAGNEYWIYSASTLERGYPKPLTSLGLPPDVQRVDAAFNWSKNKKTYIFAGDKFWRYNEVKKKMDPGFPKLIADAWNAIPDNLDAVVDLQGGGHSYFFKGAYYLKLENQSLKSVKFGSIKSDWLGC

Prothrombin = Prothrombin (Bos taurus, UniProt P00735); assay: thrombin inhibition, dose response, biochemical, fluorescence polarization, uHTS hits (AID 602369)
[7] = target: DNA (cytosine-5)-methyltransferase 1 (Homo sapiens, UniProt P26358); assay: DNMT1 methyltransferase inhibitors, confirmation, biochemical, fluorescent molecular beacon (AID 602386)
DNA (cytosine-5)-methyltransferase 1, sequence (P26358 whole entry): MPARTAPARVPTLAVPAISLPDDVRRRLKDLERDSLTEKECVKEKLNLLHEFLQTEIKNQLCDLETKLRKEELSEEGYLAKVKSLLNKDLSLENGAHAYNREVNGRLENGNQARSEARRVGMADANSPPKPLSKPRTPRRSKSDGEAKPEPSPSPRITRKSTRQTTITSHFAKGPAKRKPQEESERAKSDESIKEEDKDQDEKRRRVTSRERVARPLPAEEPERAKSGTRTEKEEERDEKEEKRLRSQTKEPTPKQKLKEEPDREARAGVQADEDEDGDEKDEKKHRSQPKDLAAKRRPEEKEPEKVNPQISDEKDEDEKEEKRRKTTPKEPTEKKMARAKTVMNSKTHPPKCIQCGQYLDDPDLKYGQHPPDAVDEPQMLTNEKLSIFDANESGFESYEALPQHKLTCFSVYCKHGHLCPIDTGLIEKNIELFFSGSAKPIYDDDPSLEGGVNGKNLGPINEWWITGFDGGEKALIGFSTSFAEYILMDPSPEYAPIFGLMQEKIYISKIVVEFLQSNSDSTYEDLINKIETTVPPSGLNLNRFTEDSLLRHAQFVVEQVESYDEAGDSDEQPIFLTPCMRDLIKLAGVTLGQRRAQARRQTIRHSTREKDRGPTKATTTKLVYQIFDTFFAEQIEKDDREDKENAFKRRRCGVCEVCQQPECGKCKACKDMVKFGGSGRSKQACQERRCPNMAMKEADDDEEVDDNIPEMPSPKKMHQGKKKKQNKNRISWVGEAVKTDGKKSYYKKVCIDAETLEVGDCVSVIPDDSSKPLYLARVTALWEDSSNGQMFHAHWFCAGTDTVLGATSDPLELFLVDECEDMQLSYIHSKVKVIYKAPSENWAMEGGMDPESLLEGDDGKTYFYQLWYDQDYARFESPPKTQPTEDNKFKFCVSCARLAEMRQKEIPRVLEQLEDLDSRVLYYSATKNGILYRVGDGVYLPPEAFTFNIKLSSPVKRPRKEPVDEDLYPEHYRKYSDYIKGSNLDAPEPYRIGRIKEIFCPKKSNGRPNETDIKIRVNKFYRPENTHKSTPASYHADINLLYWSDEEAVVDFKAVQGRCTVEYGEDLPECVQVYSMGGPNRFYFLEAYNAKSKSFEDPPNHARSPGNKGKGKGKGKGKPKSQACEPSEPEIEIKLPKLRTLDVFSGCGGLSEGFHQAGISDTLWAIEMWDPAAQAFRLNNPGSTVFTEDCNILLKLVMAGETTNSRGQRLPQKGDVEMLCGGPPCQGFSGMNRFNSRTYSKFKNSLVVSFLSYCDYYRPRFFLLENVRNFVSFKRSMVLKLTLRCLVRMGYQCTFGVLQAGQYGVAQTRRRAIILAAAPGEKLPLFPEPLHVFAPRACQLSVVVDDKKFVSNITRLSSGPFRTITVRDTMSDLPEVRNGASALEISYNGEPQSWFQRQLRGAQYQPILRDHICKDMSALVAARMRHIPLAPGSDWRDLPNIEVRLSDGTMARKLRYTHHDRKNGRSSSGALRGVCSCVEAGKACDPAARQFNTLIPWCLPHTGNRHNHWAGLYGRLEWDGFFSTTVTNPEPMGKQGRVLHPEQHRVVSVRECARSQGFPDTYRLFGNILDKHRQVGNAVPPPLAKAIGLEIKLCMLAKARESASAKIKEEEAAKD

[8] = target: 26S proteasome non-ATPase regulatory subunit 14 (Homo sapiens, UniProt O00487); assay: inhibition of proteasome subunit RPN11 – biochemical, fluorescence polarization, uHTS hits, confirmation (AID 602368)
26S proteasome non-ATPase regulatory subunit 14, sequence (O00487 whole entry): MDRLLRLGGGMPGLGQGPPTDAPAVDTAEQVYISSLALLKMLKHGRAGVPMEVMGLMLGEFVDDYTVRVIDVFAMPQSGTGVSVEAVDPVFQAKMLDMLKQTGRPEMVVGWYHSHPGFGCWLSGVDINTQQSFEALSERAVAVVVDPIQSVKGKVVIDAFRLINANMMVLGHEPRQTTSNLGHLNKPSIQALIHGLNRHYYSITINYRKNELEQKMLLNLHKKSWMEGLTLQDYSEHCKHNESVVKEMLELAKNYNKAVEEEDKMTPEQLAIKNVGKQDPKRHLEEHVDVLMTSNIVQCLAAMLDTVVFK

IC50 [6]	IC50 (Prothrombin)	IC50 [7]	IC50 [8]	SMILES	IC50 [1]	IC50 (Orexin receptor type 2 [2])	IC50 [3]	IC50 (Orexin receptor type 2 [4])	IC50 [5]	IC50 (CHO-K1)
–	–	–	–	Cc1ccc(NC2CCCN(C(=O)c3cccc(-c4ncc[nH]4)c3)C2)cc1C (stereo not given)	2.99 µM (active)	17.1 µM (inactive)	> 49.7 µM (inactive)	4.48 µM (active)	0.175 µM (active)	> 66.2 µM (inactive)
10.3 µM (active)	29 µM (active)	5.56 µM (active)	7.92 µM (active)	O=C(O)CCCCCN1C(=O)/C(=C/c2cn(-c3ccccc3)nc2-c2cccs2)SC1=S	–	–	–	–	–	–
